Experimental data from US10093642B2, “Multitarget hedgehog pathway inhibitors and uses thereof” (UNIVERSITA' DEGLI STUDI DI SIENA, priority 2013, dated 2018).

How the values were obtained:
[1] = test system: ASZ001 BCC allografts; test: ASZ001 BCC allograft in NOD/SCID mice; format: in vivo; conditions: 100 μmol/Kg, 18 days
Text: FIG. 18. Glabrescione B inhibits Gli1-dependent BCC tumor growth in vivo. (ASZ001 BCC allografts). (A) Change of tumor volume during Glabrescione B (GlaB) or vehicle (CTR) treatment period (18 days). […] (C) qRT-PCR of Gli1 and Ptch1 mRNA. Shown is the mean±SD of tumor (n=6) for each treatment. *P<0.05 vs CTR.
Therefore, to verify the Glabrescione B efficacy to inhibit Hh-dependent tumor cell growth in vivo, we turned to an allograft model of MB cells. Spontaneous Medulloblastomas from Ptch1^+/− mice were isolated, minced, pipetted to obtain a single-cell suspension and grafted s.c. at the posterior flank of female BALB/c nude mice (nu/nu) (Charles River Laboratories, Lecco, Italy). Tumors were grown until a median size of ˜100 mm^3. Animals were randomly divided into two groups (n=6) and treated with solvent only (2-hydroxypropyl-β-cyclodextrin:ethanol, 3:1) or Glabrescione B in solvent (75 μmol/Kg) for 18 days (2-hydroxypropyl-β-cyclodextrin was purchased from Sigma Aldrich, St. Louis, Mo., USA). 2×10^6 ASZ001 BCC cells were resuspended in an equal volume of 154CF medium and Matrigel (BD Biosciences, Heidelberg, Germany) and injected s.c. at the posterior flank of female NOD/SCID mice (Charles River Laboratories, Lecco, Italy), as previously described (Eberl et al, 2012). […] Tumor volumes change was calculated by the formula length×width×0.5×(length+width) (Lauth et al, 2007). […]

[2] = test system: Gli1-GST fusion protein; test: NMR relaxation speed of Glabrescione B protons in presence of Gli1-GST; format: binding; conditions: 0.412 mM
Description: A sample of Glabrescione B 0.412 mM in DMSO-d6 was prepared and added to 20 μL of a solution of Gli1-GST (Glutathione S-transferase) fusion protein at 5 μg/μL, providing a molar ratio of Glabrescione B/Gli1-GST of 150:1. […] In experimental conditions, Glabrescione B protons experiencing the most significant perturbation of the relaxation speed, due to the presence of Gli1-GST, belong to the ring A of the isoflavone nucleus, namely aromatic protons H1, H3 and those belonging to methoxyl groups 2′ and 4′.

[3] = test system: Cancer stem cells (CSCs) isolated from murine Ptch+/− MB; test: Gli1 mRNA in MB cancer stem cells (neurospheres); format: cell-based; conditions: 48 h, quantitative RT-PCR
Description: FIG. 13. […] Gli1 mRNA levels were determined by quantitative RT-PCR using HPRT as normalizer.
Hh activity preferentially associates to stemness features. For this reason, the Hh pathway antagonist Glabrescione B has also been investigated for its ability to modulate the behavior of MB cancer stem cells (CSCs).
It has been described that Hh activity preferentially associates to stemness features. In order to determine whether Glabrescione B also modulates the behavior of MB cancer stem cells (CSCs), neurospheres isolated from murine Ptch^+/− MB were treated with Glabrescione B for 48 h and the levels of Gli1 were determined by quantitative RT-PCR. Murine MBs were isolated from Ptch1^+/− mice (Goodrich, Milenkivic et al. 1997). Tissues were collected in HBSS supplemented with 0.5% glucose and penicillin-streptomycin, grossly triturated with serological pipette and treated with DNAse I to a final concentration of 0.04% for 20 min. Finally, cells aggregates were mechanically dissociated using pipettes of decreasing bore size to obtain a single cell suspension. […]

[4] = test system: cerebellar granule progenitor cells (GCPs); test: BrdU incorporation in Shh-treated cerebellar granule cell progenitors; format: cell-based, mouse; conditions: Shh 3 μg/ml, 48 h
Description: FIG. 10. Cerebellar granule progenitor cells (GCPs) were treated with Shh (Recombinant mouse Sonic Hedgehog, amino-terminal peptide, 3 μg/ml) and with different concentrations of Glabrescione B, as indicated, for 48 h. Inhibition of cell proliferation was measured as percentage of BrdU incorporation in comparison to DMSO (0.5%, vehicle) treated sample.
A biological assay was performed in cerebellar neural progenitors cells obtained from 4-days-old mice, when they are actively proliferating under Sonic Hedgehog (Shh) stimulus. As expected, treatment of these cells with Shh increased the proliferation rate, as evaluated by BrdU-incorporation assay. […] To further evaluate the antiproliferative effect of Glabrescione B, human MB cell lines D283 were treated with Glabrescione B at different concentrations. […] The biomolecule was active, as shown by the growth rate inhibition (70-95%).
Another experiment to assess whether Glabrescione B also regulates Hh pathway in a physiological context was carried out in cerebellar granule cells precursors (GCPs) isolated from 4-days-old mice according to established protocols (Wechsler-Reya and Scott, 1999). Briefly, cerebella were removed aseptically, cut into small pieces, and incubated at room temperature for 15 min in digestion buffer [Dulbecco's PBS (Invitrogen, Gaithersburg, Md.) with 0.1% trypsin, 0.2% EDTA, and 100 μg/ml DNase]. […]

Compound: COc1cc(OC)c2c(=O)c(-c3ccc(OCC=C(C)C)c(OCC=C(C)C)c3)coc2c1 [Glabrescione B, 3-(3′,4′-bis(3-methylbut-2-enyloxy)phenyl)-5,7-dimethoxy-4H-chromen-4-one]
- Gli1 mRNA levels in tumors [1]: significant reduction
- tumor growth [1]: significant reduction of tumor growth
- Normalized relaxation speed ΔR/Rf, GlaB:Gli1-GST 1:150 ([2]; proton 1): 0.341
- Normalized relaxation speed ΔR/Rf, GlaB:Gli1-GST 1:150 ([2]; proton 2′): 0.267
- Normalized relaxation speed ΔR/Rf, GlaB:Gli1-GST 1:150 ([2]; proton 3): 0.206
- Normalized relaxation speed ΔR/Rf, GlaB:Gli1-GST 1:150 ([2]; proton 4′): 0.482
- Normalized relaxation speed ΔR/Rf, GlaB:Gli1-GST 1:150 ([2]; proton 8): 0.028
- Normalized relaxation speed ΔR/Rf, GlaB:Gli1-GST 1:150 ([2]; proton 11): 0.286
- Normalized relaxation speed ΔR/Rf, GlaB:Gli1-GST 1:150 ([2]; proton 12): 0
- Normalized relaxation speed ΔR/Rf, GlaB:Gli1-GST 1:150 ([2]; proton 15): 0.329
- Normalized relaxation speed ΔR/Rf, GlaB:Gli1-GST 1:150 ([2]; proton 19): 0
- Gli1 mRNA levels in MB CSCs [3]: reduction of Gli1 mRNA levels
- Shh-induced proliferation (BrdU incorporation) [4]: antagonized this effect
